Measurements reported in patent US11358954B2, “PPAR agonists, compounds, pharmaceutical compositions, and methods of use thereof” (Mitobridge, Inc., priority 2016, dated 2022).
pEC50: −log10 of the molar value.

Key:
hERG = target: T1, hERG (Homo sapiens, UniProt Q12809); test: hERG inhibition screen (patch clamp, peak hERG tail current); format: cell-based; conditions: for inhibition at 10 µM: human
T1 construct: expressed in transfected cells
Protocol: Cells were cultured in DMEM/F-12 medium supplemented with 10% fetal bovine serum and 400 μg/mL Geneticin. Cells were grown in 75 cm tissue culture flasks maintained at 37° C. with 5% CO2 and passaged every 3 days using 0.05/0.02% Trypsin/EDTA (confluency of <80%). For the purpose of electrophysiology, cells were seeded in 25 cm2 tissue culture flasks. Three day old cells were harvested using Trypsin/EDTA (0.025/0.01%) as detaching agent and resuspended in external recording solution.
Preweighed quantity of test item was dissolved in tissue culture grade DMSO to prepare a primary stock solution. The strength of the primary stock was 1000× of the intended highest test concentration. Subsequently, working stock solutions of appropriate strengths was prepared by dilution of primary stock with DMSO. The stock solutions were aliquoted into eppendorff tubes and stored at −20° C. freezer (<0° C.) until use. On the day of experiment, aliquots were thawed and used for preparing the assay solution (test solution).
Test solutions were prepared fresh by adding 4 μL of stock solution in to 3996 μL external recording solution such that the final DMSO concentration in the assay solution was 0.1% v/v. Upon addition, solution was inspected carefully against light by naked eye for any indications of precipitation.
Electrophysiological Procedures: • Electrophysiology Setup: Instrument: Port-A-Patch • Patch clamp type: Semiautomatic • Manufacturer: Nanion technologies, GmBH Germany • Electrophysiology chips: Glasscoated NPC-1 chips • Recording Condition: Room temperature • Compound Addition Protocol: Manual addition—20 μL of solution was added on one side of the chip, followed by withdrawal of 20 μL from the other side. This way of addition and withdrawal was repeated at least 4-5 times to ensure actual test concentration is reached. • Test Concentration Exposure Period: Cells were exposed to each test concentration for 3 min or till a steady state block was reached • Voltage Protocol: −40 mV subtraction pulse for 0.5 sec; +40 mV activation pre-pulse for 2 sec; −40 mV test pulse for 2 sec and −80 mV holding potential repeated at every 10 sec • Assay end point: Peak hERG tail current recorded when the voltage was reduced from +40 mV to −40 mV.
The steady state current after the application of 0.1% DMSO was considered as baseline (control current). Steady state current obtained at the end of each test concentration addition was used to calculate the % hERG current inhibited at each concentration. Any rundown due to vehicle addition was corrected to calculate % hERG current inhibition. Each cell acted as its own control. Average current of last 3-5 sweeps of acceptable quality was considered for calculation of % inhibition. Sweeps with artifacts and noise were omitted while calculation.

[1] = Pharmacokinetic screening in male CD-1 mice; format: in vivo; conditions: mouse; for C0: read-out: IV PK C0; for Vd: read-out: IV PK Vss; for bioavailability: read-out: Oral PK % F; for Cmax: read-out: Oral PK Cmax; for Tmax: read-out: Oral PK T max
Protocol: (§1) In this example, the PK profile of several PPARδ agonists disclosed herein in male CD-1 mice or Wistar rats was determined by the methods disclosed in Boxenbaum H. (1980) Interspecies variation in liver weight, hepatic blood flow and antipyrine intrinsic clearance in extrapolation of Benzodiazepines and phenytoin. J. Pharmacokinet Biopharm 8: 165-176. Similar methods can be used to analyze other compounds provided herein.
(§2) All compounds were separately administered to CD-1 mice at 1 mg/kg iv or 3 mg/kg po. The compounds were separately administered to male Wistar rats 1 mg/kg iv or 3 mg/kg po. The species M refers to mouse and R reports to rat in the following table. NA means not available.

Human PPARδ = target: T2, Human PPARδ (Homo sapiens, UniProt Q03181); test: PPARδ activity screen (GAL4-PPARδ LBD luciferase transactivation in CV-1 cells); format: cell-based; conditions: 24 h compound treatment, luciferase reporter
T2 construct: (PPARδ amino acid 128 to C-terminus); expressed in transfected cells; host or cells: CV-1 cells
T2 sequence (Q03181 128-441 limits assumed): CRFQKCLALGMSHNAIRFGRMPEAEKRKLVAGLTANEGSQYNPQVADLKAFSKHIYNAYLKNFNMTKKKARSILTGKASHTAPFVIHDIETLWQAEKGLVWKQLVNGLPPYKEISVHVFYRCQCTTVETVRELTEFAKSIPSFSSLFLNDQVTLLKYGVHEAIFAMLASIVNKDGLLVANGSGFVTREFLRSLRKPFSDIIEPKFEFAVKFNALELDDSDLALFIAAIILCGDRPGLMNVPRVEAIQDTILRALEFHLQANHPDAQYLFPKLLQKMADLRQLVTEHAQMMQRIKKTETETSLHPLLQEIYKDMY
Protocol: CV-1 cells were grown in DMEM+10% charcoal stripped FCS. Cells were seeded into 384-well plates the day before transfection to give a confluency of 50-80% at transfection. A total of […] containing 0.64 micrograms pCMX-PPARDelta LBD, 0.1 micrograms pCMXβGal, 0.08 micrograms pGLMH2004 reporter and 0.02 micrograms pCMX empty vector was transfected per well using FuGene transfection reagent according to the manufacturer's instructions (Roche). Cells were allowed to express protein for 48 h followed by addition of compound.
Human PPARδ was used to PCR amplify the PPARδ LBD. […] Ensuing fusions were verified by sequencing.
All compounds were dissolved in DMSO and diluted 1:1000 upon addition to the cells. Compounds were tested in quadruple in concentrations ranging from 0.001 to 100 μM. Cells were treated with compound for 24 h followed by luciferase assay. […]
Medium including test compound was aspirated and washed with PBS. […] Light emission was quantified by counting on a Perkin Elmer Envision reader. […] Beta-galactosidase assays were performed in the microwell plates using a kit from Promega and read in a Perkin Elmer Envision reader. […]
The activity of a compound is calculated as fold induction compared to an untreated sample. […] EC50 values were calculated via non-linear regression using GraphPad PRISM (GraphPad Software, San Diego, Calif.).

[2] = Pharmacokinetic screening in male Wistar rats; conditions: in vivo, rat; for C0: read-out: IV PK C0; for clearance: read-out: IV PK Cl; for Vd: read-out: IV PK Vss; for bioavailability: 3.0 mpk po vs 1.0 mpk iv, read-out: Oral PK % F; for Cmax: read-out: Oral PK Cmax; for Tmax: read-out: Oral PK T max
Protocol: as §1, §2

[3] = male, CD-1, in vivo, 1 mg/kg, 1.0 mpk iv, read-out: IV PK AUC (0-inf)
[4] = male, CD-1, in vivo, 1 mg/kg, 1.0 mpk iv, read-out: IV PK Beta T½ (converted)
[5] = male, CD-1, in vivo, 1 mg/kg, 1.0 mpk iv
[6] = male, CD-1, in vivo, 3 mg/kg, 3.0 mpk po vs 1.0 mpk iv
[7] = male, CD-1, in vivo, 3 mg/kg, 3.0 mpk po, read-out: Oral PK AUC (0-inf)
[8] = male, CD-1, in vivo, 3 mg/kg, 3.0 mpk po
[9] = male, CD-1, in vivo, 3 mg/kg, 3.0 mpk po, read-out: Oral PK T½ (converted)
[10] = 1 mg/kg, 1.0 mpk iv, read-out: IV PK AUC (0-inf)
[11] = 1 mg/kg, 1.0 mpk iv, read-out: IV PK Beta T½ (converted)
[12] = 3 mg/kg, 3.0 mpk po, read-out: Oral PK AUC (0-inf)
[13] = 3 mg/kg, 3.0 mpk po, read-out: Oral PK T½ (converted)

T1 sequence (Q12809 whole entry): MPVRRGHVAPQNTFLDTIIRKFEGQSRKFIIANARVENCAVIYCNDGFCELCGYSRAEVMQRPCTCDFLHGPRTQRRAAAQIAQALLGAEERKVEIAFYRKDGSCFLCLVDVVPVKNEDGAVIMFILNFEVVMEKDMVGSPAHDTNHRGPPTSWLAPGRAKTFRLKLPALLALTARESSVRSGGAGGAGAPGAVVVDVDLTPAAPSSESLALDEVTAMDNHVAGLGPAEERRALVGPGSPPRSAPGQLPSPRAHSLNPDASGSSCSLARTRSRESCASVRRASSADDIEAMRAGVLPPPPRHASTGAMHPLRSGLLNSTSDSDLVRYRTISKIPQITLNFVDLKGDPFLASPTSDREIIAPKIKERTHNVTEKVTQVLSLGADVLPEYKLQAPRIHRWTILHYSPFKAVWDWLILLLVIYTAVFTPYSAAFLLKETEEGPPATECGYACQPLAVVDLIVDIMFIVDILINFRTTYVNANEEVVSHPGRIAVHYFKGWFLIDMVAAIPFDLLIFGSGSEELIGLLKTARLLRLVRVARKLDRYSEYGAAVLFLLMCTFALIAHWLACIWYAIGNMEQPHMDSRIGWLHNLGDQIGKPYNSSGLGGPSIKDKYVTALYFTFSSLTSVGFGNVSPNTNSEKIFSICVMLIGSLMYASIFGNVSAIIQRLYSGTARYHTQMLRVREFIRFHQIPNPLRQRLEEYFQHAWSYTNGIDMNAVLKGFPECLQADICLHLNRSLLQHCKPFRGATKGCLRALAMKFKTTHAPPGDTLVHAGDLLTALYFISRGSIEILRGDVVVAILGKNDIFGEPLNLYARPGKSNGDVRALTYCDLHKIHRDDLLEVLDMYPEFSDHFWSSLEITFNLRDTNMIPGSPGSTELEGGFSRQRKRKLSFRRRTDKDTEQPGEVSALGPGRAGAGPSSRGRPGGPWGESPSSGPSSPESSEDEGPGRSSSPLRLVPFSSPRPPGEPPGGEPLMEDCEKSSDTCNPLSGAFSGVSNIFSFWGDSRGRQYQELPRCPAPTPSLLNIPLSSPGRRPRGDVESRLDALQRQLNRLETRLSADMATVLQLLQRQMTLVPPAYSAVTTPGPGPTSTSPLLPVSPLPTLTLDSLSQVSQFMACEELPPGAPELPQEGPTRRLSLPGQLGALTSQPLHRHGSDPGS

Row | AUC(0-inf) [1, 3] | half-life [1, 4] | C0 [1, 5] | Vd [1, 5] | bioavailability [1, 6] | AUC(0-inf) [1, 7] | Cmax [1, 8] | Tmax [1, 8] | half-life [1, 9] | IV PK Cl ([1]; 1.0 mpk iv) | AUC(0-inf) [2, 10] | C0 ([2]; 1 mg/kg, 1.0 mpk iv) | clearance ([2]; 1 mg/kg, 1.0 mpk iv) | Vd ([2]; 1 mg/kg, 1.0 mpk iv) | bioavailability ([2]; 3 mg/kg) | AUC(0-inf) [2, 12] | Cmax ([2]; 3 mg/kg, 3.0 mpk po) | Tmax ([2]; 3 mg/kg, 3.0 mpk po) | Compound | hERG % Inhibition at 10 μM (hERG) | inhibition at 10 µM (hERG) | other results
1 |  |  |  |  |  |  |  |  |  |  |  |  |  |  |  |  |  |  | C[C@H](CCCOc1ccccc1Cn1c(C(F)(F)F)cnc1-c1ccc(OC(F)(F)F)cc1)CC(=O)O [Compound 2g, (3R)-3-methyl-6-(2-((2-(4-(trifluoromethoxy)phenyl)-5-(trifluoromethyl)-1H-imidazol-1-yl)methyl)phenoxy)hexanoic acid] | 2.00% |  | 
2 | 5620 ng·h/mL | 6.3 h | 1720 ng/mL | 1.4 L/kg | 61% | 5620 ng·h/mL | 2830 ng/mL | 0.3 h | 10 h |  |  |  |  |  |  |  |  |  | C[C@H](CCCOc1ccccc1Cn1c(C(F)(F)F)cnc1-c1ccc(Cl)cc1)CC(=O)O [Compound 2d, (3R)-6-(2-((2-(4-chlorophenyl)-5-(trifluoromethyl)-1H-imidazol-1-yl)methyl)phenoxy)-3-methylhexanoic acid] | 5.00% |  | clearance ([1]; male, CD-1, in vivo, 1 mg/kg, 1.0 mpk iv, read-out: IV PK Cl): 5.4 mL/min/kg
3 |  |  |  |  |  |  |  |  |  |  |  |  |  |  |  |  |  |  | O=C(O)CCCCCOc1ccccc1Cn1c(C(F)(F)F)cnc1-c1ccc(-c2ccco2)cc1 [Compound 2h, 6-(2-((2-(4-(furan-2-yl)phenyl)-5-(trifluoromethyl)-1H-imidazol-1-yl)methyl)phenoxy)hexanoic acid] |  | 7% | pEC50 (Human PPARδ): 8.70
4 |  |  |  |  |  |  |  |  |  |  |  |  |  |  |  |  |  |  | C[C@H](CCCOc1ccccc1Cn1c(C(F)(F)F)cnc1-c1ccc(F)cc1)CC(=O)O [Compound 2e, (3R)-6-(2-((2-(4-fluorophenyl)-5-(trifluoromethyl)-1H-imidazol-1-yl)methyl)phenoxy)-3-methylhexanoic acid] |  |  | pEC50 (Human PPARδ): 7.60
5 |  |  |  |  |  |  |  |  |  |  |  |  |  |  |  |  |  |  | C[C@H](CCCOc1ccccc1Cn1c(C(F)(F)F)cnc1-c1ccc(-c2ccco2)cc1)CC(=O)O [Compound 2i, (3R)-6-(2-((2-(4-(furan-2-yl)phenyl)-5-(trifluoromethyl)-1H-imidazol-1-yl)methyl)phenoxy)-3-methylhexanoic acid] | 2.30% |  | 
6 | 3310 ng·h/mL |  | 740 ng/mL | 1.9 L/kg | 70% | 6960 ng·h/mL | 1260 ng/mL | 0.3 h | 3.8 h | 5.0 mL/min/kg | 5040 ng·h/mL | 1530 ng/mL | 3.8 mL/min/kg | 1.7 L/kg | 100% | 16100 ng·h/mL | 1200 ng/mL | 2.8 h | C[C@H](CCCOc1ccccc1Cn1c(C(F)(F)F)cnc1-c1ccc(C(F)(F)F)cc1)CC(=O)O [Compound 2a, (3R)-3-methyl-6-(2-((5-(trifluoromethyl)-2-(4-(trifluoromethyl)phenyl)-1H-imidazol-1-yl)methyl)phenoxy)hexanoic acid] |  | 6% | IV PK Beta T½ ([1]; 1.0 mpk iv): 5.8 h; half-life [2, 11]: 7.1 h
7 |  |  |  |  |  |  |  |  |  |  |  |  |  |  |  |  |  |  | C[C@H](CCCOc1ccccc1Cn1c(C#N)cnc1-c1ccc(C(F)(F)F)cc1)CC(=O)O [Compound 2c, (3R)-6-(2-((5-cyano-2-(4-(trifluoromethyl)phenyl)-1H-imidazol-1-yl)methyl)phenoxy)-3-methylhexanoic acid] | 2.50% |  | 
8 | 1060 ng·h/mL | 3.5 h | 810 ng/mL | 3.1 L/kg | 100% | 3880 ng·h/mL | 2950 ng/mL | 0.5 h | 4.3 h | 16 mL/min/kg | 2970 ng·h/mL | 2120 ng/mL | 5.8 mL/min/kg | 1.2 L/kg | 87% | 7790 ng·h/mL | 2380 ng/mL | 0.3 h | C[C@H](CCCOc1ccccc1Cn1c(Cl)cnc1-c1ccc(C(F)(F)F)cc1)CC(=O)O [Compound 2b, (R)-6-(2-((5-chloro-2-(4-(trifluoromethyl)phenyl)-1H-imidazol-1-yl)methyl)phenoxy)-3-methylhexanoic acid] | 3.00% |  | half-life [2, 11]: 4.8 h; half-life [2, 13]: 4.1 h
9 | 6730 ng·h/mL | 4.1 h | 2450 ng/mL | 0.6 L/kg |  | 14700 ng·h/mL | 4240 ng/mL | 0.3 h | 4.9 h | 2.5 mL/min/kg | 4090 ng·h/mL | 1820 ng/mL | 3 mL/min/kg | 3.9 L/kg | 100% | 14900 ng·h/mL | 4330 ng/mL | 0.3 h | C[C@H](CCCOc1ccccc1Cn1c(C(F)(F)F)cnc1-c1ccc(C#N)cc1)CC(=O)O [Compound 2f, (R)-6-(2-((2-(4-cyanophenyl)-5-(trifluoromethyl)-1H-imidazol-1-yl)methyl)phenoxy)-3-methylhexanoic acid] |  | 3.5% | Oral PK % F ([1]; 3.0 mpk po vs 1.0 mpk iv): 73%; half-life [2, 13]: 10.3 h
